Consider 3 compounds from patent US8343475B2, “Small cationic antimicrobial peptides” (priority 2006, dated 2013).

A word on the MIC: it is the smallest concentration in the dilution series that meets the test's criterion for growth inhibition. Read a high MIC as a less susceptible organism.

Structures are written as SMILES. In brackets after ≈: the same amount, converted by molar mass. Residues, ends and D or L forms follow the SMILES beside them.

In assay [1] the test system is Pseudomonas aeruginosa PAO1 strain H103. It is filed as cell-based. To be noted: PAO1. The procedure, abridged:
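Modified broth microdilution MIC in Mueller Hinton medium, peptides diluted in 0.01% acetic acid/0.2% BSA, polypropylene plates. Inoculum 2-7×10^5 CFU/ml, overnight at 37 °C; MIC is the lowest concentration with no visible growth.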

Assay [2] relates to LPS-stimulated TNFα production in THP-1 cells. Briefly: Suppression of P. aeruginosa LPS-stimulated TNFα production (ELISA). It is filed as cell-based, human. Conditions: 10 ng/ml P. aeruginosa LPS, peptides at 10, 20 and 50 μg/ml (FIG. 13). The protocol:
FIG. 12. Assessment of the ability of peptides to suppress P. aeruginosa LPS (10 ng/ml)-stimulated TNFα production in THP1 cells. Presented results are the mean values for 4 wells performed on 2 separate occasions. The x-axis number labeling is the amount of each peptide in μg/ml for the corresponding peptides.
FIG. 13. Suppression of inflammatory responses by peptides. Monocyte/macrophage-like adherent THP-1 cells were stimulated with 10 ng/ml P. aeruginosa LPS and the resulting TNFα response measured. Peptides were added at 10, 20 and 50 μg/ml. The observed TNF-release was measured by ELISA and related to the 100% value of the untreated (without peptide) cells.
Cytotoxicity and TNFα suppression assay. THP1 cells were cultured in RPMI 1640 medium (supplemented with 10% (v/v) FCS, 1% L-glutamine, and […] sodium pyruvate) in E-toxa-clean (Sigma-Aldrich, Oakville, Ontario, Canada)-washed, endotoxin-free bottle. THP1 cells were counted and 250 μl per well of […] were transferred into a 96 well tissue cultured treated polystyrene microtiterplate (Beckton Dickinson, Franklin Lakes, USA). In addition PMA were added (1.3 nM) and the cells were incubated for three days. After three days the medium were exchanged and Pseudomonas aeruginosa LPS and the peptides were added. The incubation time was four hours and the supernatant was frozen at −20° C. The cells were stained with Tryphan Blue for 2 minutes and washed with PBS two times. The viability of the cells was determined by counting the stained cells over the unstained. The supernatent was used to measure the TNFα production by an ELISA (eBioscience, San Diego, USA) following the manufactures protocol.
LPS from P. aeruginosa strain H103 was highly purified free of proteins and lipids using the Darveau-Hancock method. Briefly, P. aeruginosa was grown overnight in LB broth at 37° C. Cells were collected and washed and the isolated LPS pellets were extracted with a 2:1 chloroform:methanol solution to remove contaminating lipids. Purified LPS samples were quantitated using an assay for the specific sugar 2-keto-3-deoxyoctosonic acid (KDO assay) and then resuspended in endotoxin-free water (Sigma-Aldrich).
Human monocytic cells, THP-1, were obtained from American type culture collection, ATCC® (TIB-202) and were grown in suspension in RPMI-1640 media (Gibco®, Invitrogen™ Life technologies, Burlington, ON), supplemented with 10% (v/v) heat inactivated fetal bovine serum (FBS), 2 mM L-glutamine and 1 mM sodium pyruvate (all from Invitrogen Life Technologies). Cultures were maintained at 37° C. in a humidified 5% (v/v) CO2 incubator up to a maximum of six passages. THP-1 cells at a density of 1×10^6 cells/ml were treated with 0.3 μg/ml phorbol 12-myristate 13-acetate (PMA; Sigma-Aldrich Canada, Oakville ON) for 24 hours, inducing plastic-adherent cells that were further rested in complete RPMI-1640 medium for an additional 24 hours prior to stimulation with various treatments including P. aeruginosa LPS (10 ng/ml) with or without peptides for 24 hours after which supernatants were collected and TNFα assessed by ELISA.
THP-1 cells were stimulated with LPS (10 ng/ml) with or without peptide (10 or 100 μg/ml) for 4 hours as indicated in the results section. Following incubation of the cells under various treatment regimens, the tissue culture supernatants were centrifuged at 1000×g for 5 min, then at 10,000×g for 2 min to obtain cell-free samples. Supernatants were aliquoted and then stored at −20° C. prior to assay for various cytokines. TNFα secretion was detected with a capture ELISA (eBioscience and BioSource International Inc., CA, USA respectively).

Assay [3] concerns clinical isolate of Staphylococcus epidermidis. It is filed as cell-based. Conditions: clinical isolate of. The procedure, abridged:
(§1)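 First, peptides were serially diluted at ten times final strength in 0.01% acetic acid with 0.2% BSA. These were then added to Mueller Hinton medium and inoculated with overnight-grown organisms at 2-7×10^5 CFU/ml. After overnight incubation at 37° C, the MIC was scored as the concentration without growth.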

A further assay has as its system Escherichia coli UB1005. It is filed as cell-based. To be noted: indolicidin substitution variants (Table 4). The procedure, abridged:
as §1

The test system of assay [4] is lab isolate of Candida albicans. It is filed as cell-based. To be noted: lab isolate of. The procedure, abridged:
as §1

Assay [5] has as its system Enterococcus faecalis ATCC29212. It is filed as cell-based. To be noted: ATCC29212. The method, boiled down: as §1
The test system of assay [6] is wild-type Salmonella enterica ssp. typhimurium. It counts as cell-based. The method, boiled down: as §1
The test system of assay [7] is Staphylococcus aureus ATCC25923. It is filed as cell-based. Conditions: ATCC25923. The method, boiled down:
as §1

The test system of assay [8] is CXCL1 (Gro-α) release by human PBMC. Briefly: Chemokine induction in PBMC (capture ELISA). It is filed as cell-based. Conditions: background (196) subtracted. The method, boiled down:
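Human PBMC from healthy donors' heparinised blood (Ficoll), 7.5×10^5 cells treated with 20 or 100 μg/ml peptide for 24 h at 37° C, 5% CO2. Cell-free supernatants assayed for CXCL1 by capture ELISA.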
(In general: An ELISA detects its analyte on a solid surface through an enzyme-linked reagent.)

The subject of assay [9] is MCP-1 release by human PBMC. In words: Chemokine induction in PBMC (capture ELISA). It is filed as cell-based. Conditions: background (204) subtracted. The method, boiled down: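 Heparinized blood from healthy volunteers; Ficoll-isolated human PBMC (7.5×10^5) treated with peptides at 20 or 100 μg/ml for 24 hours at 37° C, 5% CO2. Cell-free supernatants assayed for MCP-1 by capture ELISA.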

In the next assay the test system is ESBL E. cloacae. It counts as cell-based, Enterobacter cloacae. The method, boiled down: (§2)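 Modified broth microdilution in Mueller Hinton medium, peptides serially diluted in 0.01% acetic acid with 0.2% BSA in polypropylene plates. Inoculum 2-7×10^5 CFU/ml, overnight incubation at 37° C; MIC taken as lowest concentration with no visible growth.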
Assay [10] concerns clinical isolates of MRSA. It is filed as cell-based, Staphylococcus aureus. The method, boiled down: as §2
Assay [11] relates to Liverpool Epidemic Strains. It is filed as cell-based, Pseudomonas aeruginosa. The procedure, abridged: as §2
Assay [12] deals with multidrug resistant Pseudomonas maltophilia ATCC13637. It counts as cell-based. The procedure, abridged: (§3)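 Broth microdilution in Mueller Hinton medium, peptides serially diluted in 0.01% acetic acid with 0.2% BSA in polypropylene plates. Inoculum 2-7×10^5 CFU/ml, incubated overnight at 37° C. MIC is the lowest concentration with no visible growth.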
In assay [13] the test system is ESBL Klebsiella pneumonia clinical strain 63575. It is filed as cell-based. The method, boiled down:
as §3

Assay [14] deals with ESBL E. coli clinical strain 64771. It is filed as cell-based. To be noted: ESBL clinical strain 64771. The procedure, abridged: as §3
Assay [15] has as its system MCP-3 release by human PBMC. Briefly: Chemokine induction in PBMC (capture ELISA). It is filed as cell-based. To be noted: background (6) subtracted. The method, boiled down: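 Human PBMC from healthy donors (Ficoll-isolated), 7.5×10^5 cells at 0.75–1×10^6 cells/ml, treated with peptides at 20 or 100 μg/ml for 24 h at 37° C, 5% CO2. MCP-3 in cell-free supernatants measured by capture ELISA.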

A further assay deals with S. aureus. In words: Mouse model of aggressive bacterial infection (intraperitoneal). It is filed as in vivo. To be noted: 1.6×10^10 CFU IP; 4 mg/kg peptide IP four hours post infection; total infection time 24 hours; saline controls 100% death. On the procedure: FIG. 10. Ability of new antimicrobial peptides HHC-10 and HHC-36 to protect mice against Staph aureus infections. Bacterial loads in the peritoneal lavage from individual mice after 24 hours of infection are shown (solid circles). Dead animals were assigned the highest colony forming unit (CFU) count obtained in the experiment. The solid line represents the arithmetic mean for each group.
FIG. 18. […] Mice were treated with 1.6×10^10 CFU of S. aureus intraperitoneally. Four hours post infection they received a dose of 8 mg/kg peptide IP. The infection was allowed to progress for 4 or 24 hours after which mice were euthanaised and plate counts of staphylococci surviving in the peritoneum were determined. Bacterial loads in the peritoneal lavage from individual mice after 24 hours of infection are shown (solid circles). The solid line represents the arithmetic mean for each group.
FIG. 19. […] Mice were treated with 1.6×10^10 CFU of S. aureus intraperitoneally. Four hours post infection they received a dose of 8 mg/kg peptide IP. The infection was allowed to progress for 4 or 24 hours after which mice were euthanaised and plate counts of staphylococci surviving in the peritoneum were determined. Bacterial loads in the peritoneal lavage from individual mice after 24 hours of infection are shown (solid circles). The solid line represents the arithmetic mean for each group.
To further confirm this, a mouse model of aggressive bacterial infection, widely used to assess antibiotic efficacy, was utilized. Mice were treated with 1.6×10^10 CFU IP. Four hours post infection they received a dose of 4 mg/kg peptide IP. The infection was allowed to progress for 20 more hours, for a total infection time of 24 hours.
These immunomodulatory activities led to protection against infections by S. aureus. Briefly a mouse model of aggressive bacterial infection, widely used to assess antibiotic efficacy, was utilized. […] The infection was allowed to progress for 4 or 24 hours after which mice were euthanaised and plate counts of staphylococci surviving in the peritoneum were determined.

As to `CC[C@H](C)[C@H](N)C(=O)N[C@@H](CC(C)C)C(=O)N1CCC[C@H]1C(=O)N[C@@H](Cc1c[nH]c2ccccc12)C(=O)N[C@@H](CCCCN)C(=O)N[C@@H](Cc1c[nH]c2ccccc12)C(=O)N1CCC[C@H]1C(=O)N[C@@H](Cc1c[nH]c2ccccc12)C(=O)N[C@@H](Cc1c[nH]c2ccccc12)C(=O)N[C@@H](CCCCN)C(=O)N[C@@H](Cc1c[nH]c2ccccc12)C(=O)N[C@@H](CCCNC(=N)N)C(=O)N[C@@H](CCCNC(=N)N)C(N)=O` [HH117, ILPWKWPWWKWRR] (H-ILPWKWPWWKWRR-NH2; N-terminus assumed), the “MIC P. aerug” value in [1] turned out to be 16 mg/L (≈ 8.26 µM). Further, the “ability to inhibit TNFα responses compared with indolicidin” value in assay [2] is recorded as “slightly better or equivalent than indolicidin”. In addition, in [3], the “MIC S. epi.” value was found to be 2 mg/L (≈ 1.03 µM). In addition, the “MIC E. coli” value with Escherichia coli UB1005 turned out to be 8 mg/L (≈ 4.13 µM). Moreover, the “MIC C. albicans” value in [4] came out at 16 mg/L (≈ 8.26 µM). In addition, the “MIC E. faecalis” value in [5] was found to be 31 mg/L (≈ 16 µM). In addition, the “MIC S. typhi” value in assay [6] worked out at 31 mg/L (≈ 16 µM). Also, the “MIC S. aureus” value in assay [7] was found to be 8 mg/L (≈ 4.13 µM).
With `CC[C@H](C)[C@H](N)C(=O)N[C@@H](CC(C)C)C(=O)N1CCC[C@H]1C(=O)N[C@@H](Cc1c[nH]c2ccccc12)C(=O)N[C@@H](Cc1c[nH]c2ccccc12)C(=O)N[C@@H](Cc1c[nH]c2ccccc12)C(=O)N1CCC[C@H]1C(=O)N[C@@H](Cc1c[nH]c2ccccc12)C(=O)N[C@@H](Cc1c[nH]c2ccccc12)C(=O)N1CCC[C@H]1C(=O)N[C@@H](Cc1c[nH]c2ccccc12)C(=O)N[C@@H](CCCNC(=N)N)C(=O)N[C@@H](CCCNC(=N)N)C(N)=O` [HH235, ILPWWWPWWPWRR] (H-ILPWWWPWWPWRR-NH2; N-terminus assumed), in assay [1], the “MIC P. aerug” value is more than 84 mg/L. Moreover, the “ability to inhibit TNFα responses compared with indolicidin” value in [2] is “slightly better or equivalent than indolicidin”. In [3], the “MIC S. epi.” value was found to be 5 mg/L (≈ 2.55 µM). In addition, the “MIC E. coli” value in the assay on Escherichia coli UB1005 was more than 84 mg/L. Further, the “MIC C. albicans” value in assay [4] turned out to be 84 mg/L (≈ 42.8 µM). Moreover, in [5], the “MIC E. faecalis” value turned out to be 84 mg/L (≈ 42.8 µM). In assay [6], the “MIC S. typhi” value was more than 84 mg/L. Moreover, the “MIC S. aureus” value in assay [7] was 20 mg/L (≈ 10.2 µM).
As to `CC[C@H](C)[C@H](NC(=O)[C@H](Cc1c[nH]c2ccccc12)NC(=O)[C@H](CCCCN)NC(=O)[C@H](Cc1c[nH]c2ccccc12)NC(=O)[C@H](Cc1c[nH]c2ccccc12)NC(=O)[C@H](CCCNC(=N)N)NC(=O)[C@@H](N)CCCCN)C(=O)N[C@@H](CCCNC(=N)N)C(=O)N[C@@H](Cc1c[nH]c2ccccc12)C(N)=O` [HHC10, KRWWKWIRW] (H-KRWWKWIRW-NH2; N-terminus assumed), the “Chemokine induction Gro-α” value in assay [8] (20 μg/ml peptide) is -11 pg/mL; in assay [8] (100 μg/ml peptide), 2 pg/mL. For the same compound, the entries for the “Chemokine induction MCP-1” value in assay [9] (20 μg/ml peptide) and in [9] (100 μg/ml peptide) were 48 pg/mL and 3210 pg/mL, respectively. Further, the MIC against ESBL E. cloacae was determined as 3 µM (≈ 4.33 µg/mL); in assay [10], 1.5 µM (≈ 2.17 µg/mL); in assay [11] it was 0.8 µM (≈ 1.16 µg/mL); in [12], 0.4 µM (≈ 0.578 µg/mL); in [13], 6 µM (≈ 8.66 µg/mL); in assay [14], 1.5 µM (≈ 2.17 µg/mL). Moreover, the MIC in assay [5] was 12 µM (≈ 17.3 µg/mL); in [7], 3 µM (≈ 4.33 µg/mL). In addition, the “Chemokine induction MCP-3” value was -1 pg/mL in assay [15] (20 μg/ml peptide) and 49 pg/mL in assay [15] (100 μg/ml peptide). Besides, in the assay with S. aureus, the mice protected is 40%.
